For one series, the target named is 5-HT6R. Particulars: cited from earlier work.
Series [1] has as its target T1, cloned human 5-HT6-expressing cell line (HTS111RTA) (Homo sapiens, UniProt P50406).
T1 construct: host or cells: purchased ready-to-assay cell line
As to the kind of experiment: intracellular calcium mobilization assay (antagonism of 2-Me 5-HT). It is filed as cell-based. Particulars: for IC50: antagonism of 2-Me-5-HT (500 nM) intracellular calcium mobilization.

The next series can be described thus: 1H-NMR pKa determination. It is filed as physicochemical. Particulars: D2O solution; 1H-NMR titration in D2O, 298 K, corrected for H2O; piperazine nitrogen; read-out: pKa (pKa2). As for the experimental part:
All NMR spectra were performed on a Bruker Avance III HD-400 MHz spectrometer at 298 K. The ^1H-NMR experiments were acquired using water suppression in order to suppress the residual HDO signal. Solutions of the 3b and 4g 2 mM in D2O were prepared adding acetone 200 μM as an internal standard. The titrations were carried out progressively in a single NMR sample for each compound. The pH was adjusted with 0.1 mol/L of NaOH and 0.1 mol/L HCl, to cover the pH ranges 4.65–9.11 and 5.58–9.46 for 3b and 4g solutions, respectively. […] The chemical shifts (δ ppm) of the piperazine methylene protons were plotted against the pH for both compounds. The pKa were obtained from the inflection point of the resulting sigmoidal curve, for each compound.
The signal to upfield of the doublet of methylene protons of the piperazine ring was used to plot δ ppm vs. pH. In this case, the pKa^D correspond to inflection point in the resulting sigmoidal curve from the plot δ ppm vs. pH, for each compound (Figure 7B,D). […] The pKa value determined in D2O was corrected for H2O using the Krezel et al. equation [59].
The chemical shift is affected by the chemical and, consequently, the magnetic environment. Therefore, the protonation of basic species such as the nitrogen atoms in piperazine ring induce important changes in the chemical environment in the adjacent proton groups. […]

SMILES strings stand for the structures. Several values for one entry are separate records, joined by “and”; a condition that tells them apart may be missing. Equal values may be shown once. Read-outs that look alike come from different tables or passages of the source.

T1 sequence (P50406 whole entry): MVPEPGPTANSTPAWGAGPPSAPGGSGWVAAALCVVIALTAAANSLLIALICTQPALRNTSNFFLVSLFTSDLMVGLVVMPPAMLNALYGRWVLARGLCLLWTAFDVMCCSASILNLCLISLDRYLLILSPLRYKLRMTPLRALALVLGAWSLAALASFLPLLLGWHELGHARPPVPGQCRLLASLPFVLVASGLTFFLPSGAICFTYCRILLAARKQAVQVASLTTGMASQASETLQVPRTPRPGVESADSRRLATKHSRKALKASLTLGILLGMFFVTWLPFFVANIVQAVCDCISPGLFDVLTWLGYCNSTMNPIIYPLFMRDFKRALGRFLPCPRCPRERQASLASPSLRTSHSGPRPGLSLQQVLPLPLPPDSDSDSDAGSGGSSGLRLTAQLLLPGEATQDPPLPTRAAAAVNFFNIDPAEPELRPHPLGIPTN

As for `Cc1[nH]c2ccc(O)cc2c1CCN` [2-Me 5-HT, reference compound], the pKi on 5-HT6R (Figure 1, known ligands) is 7.34. In series [1], the half-maximal effective concentration (EC50) was determined as 0.119 µM. As to `COc1ccccc1N1CCNCC1` [2-methoxyphenyl piperazine], the “5-HT6R affinity compared with the compounds here reported” value with 5-HT6R is on record as “substantially lower affinity”.

The molecule `O=C(CBr)c1c[nH]c2ccccc12` [Compound 1] yielded a melting point of 160.3 to 161 °C. The pKi at 5-HT6R (Table 2 reference value) is 8.70 [1]. Regarding `Cc1ccc(S(=O)(=O)n2cc(C(=O)CN3CCN(c4ccccn4)CC3)c3ccccc32)cc1` [Compound 3a, 2-(4-(Pyridyl-2-yl)piperazin-1-yl)-1-(1-tosyl-1H-indol-3-yl)ethanone], the melting point is 74.9 to 75.7 °C and 75 to 76 °C. Consider `COc1ccccc1N1CCN(CC(=O)c2cn(S(=O)(=O)c3ccc(C)cc3)c3ccccc23)CC1` [Compound 3b, 2-(4-(2-Methoxyphenyl)piperazin-1-yl)-1-(1-tosyl-1H-indol-3-yl)ethanone], for which the melting point was 132.3 to 133.6 °C and 132 to 134 °C. The pKa in the series “1H-NMR pKa determination” was determined as 5.72. `Cc1ccc(S(=O)(=O)n2cc(C(=O)CN3CCN(c4ncccn4)CC3)c3ccccc32)cc1` [Compound 3c, 2-(4-(Pyrimidin-2-yl)piperazin-1-yl)-1-(1-tosyl-1H-indol-3-yl)ethanone]: the melting point was in the range of 133 to 134 °C. The molecule `O=C(CN1CCN(c2ncccn2)CC1)c1cn(S(=O)(=O)c2ccc(Cl)cc2)c2ccccc12` [Compound 3d, 1-(1-(4-Chlorophenylsulfonyl)-1H-indol-3-yl)-2-(4-(pyrimidin-2-yl)piperazin-1-yl)ethanone] showed a melting point of 168 to 169 °C. As to `O=C(CN1CCN(c2ncccn2)CC1)c1cn(S(=O)(=O)c2ccc(F)cc2)c2ccccc12` [Compound 3e, 1-(1-(4-Fluorophenylsulfonyl)-1H-indol-3-yl)-2-(4-(pyrimidin-2-yl)piperazin-1-yl)ethanone], the melting point is 145 to 146 °C.

As to `O=C(CN1CCN(c2ccccn2)CC1)c1cn(S(=O)(=O)c2ccc(I)cc2)c2ccccc12` [Compound 3f, 1-(1-(4-Iodophenylsulfonyl)-1H-indol-3-yl)-2-(4-(pyridin-2-yl)piperazin-1-yl)ethanone], the melting point is 179 to 180 °C. In the case of `COc1ccccc1N1CCN(CC(=O)c2cn(S(=O)(=O)c3ccc(I)cc3)c3ccccc23)CC1` [Compound 3g, 1-(1-(4-Iodophenylsulfonyl)-1H-indol-3-yl)-2-(4-(2-methoxyphenyl)piperazin-1-yl)ethanone], the melting point fell in the range of 182 to 183 °C. In turn, `O=C(CN1CCN(c2ncccn2)CC1)c1cn(S(=O)(=O)c2ccc(I)cc2)c2ccccc12` [Compound 3h, 1-(1-(4-Iodophenylsulfonyl)-1H-indol-3-yl)-2-(4-(pyrimidin-2-yl)piperazin-1-yl)ethanone] returned a melting point of 184 to 185 °C. `O=C(CN1CCN(c2ccccn2)CC1)c1cn(S(=O)(=O)c2cccc3ccccc23)c2ccccc12` [Compound 3i, 1-(1-(Naphthalen-1-ylsulfonyl)-1H-indol-3-yl)-2-(4-(pyridin-2-yl)piperazin-1-yl)ethanone] showed a melting point of 76 to 77 °C. `COc1ccccc1N1CCN(CC(=O)c2cn(S(=O)(=O)c3cccc4ccccc34)c3ccccc23)CC1` [Compound 3j, 2-(4-(2-Methoxyphenyl)piperazin-1-yl)-1-(1-(naphthalen-1-ylsulfonyl)-1H-indol-3-yl)ethanone] had a melting point of 74 to 75 °C. `O=C(CN1CCN(c2ncccn2)CC1)c1cn(S(=O)(=O)c2cccc3ccccc23)c2ccccc12` [Compound 3k, 1-(1-(Naphthalen-1-ylsulfonyl)-1H-indol-3-yl)-2-(4-(pyrimidin-2-yl)piperazin-1-yl)ethanone] showed a melting point of 88 to 89 °C. Turning to `Cc1ccc(S(=O)(=O)n2cc(C(O)CN3CCN(c4ccccn4)CC3)c3ccccc32)cc1` (stereo not drawn) [Compound 4a, 2-(4-(Pyridin-2-yl)piperazin-1-yl)-1-(1-tosyl-1H-indol-3-yl)ethanol], the melting point was 72.4 to 73.9 °C and 72 to 74 °C. Moreover, the IC50 in series [1] was determined as 0.783 µM. Take `COc1ccccc1N1CCN(CC(O)c2cn(S(=O)(=O)c3ccc(C)cc3)c3ccccc23)CC1` (stereo not drawn) [Compound 4b, 2-(4-(2-Methoxyphenyl)piperazin-1-yl)-1-(1-tosyl-1H-indol-3-yl)ethanol]: the melting point is 86.3 to 86.9 °C and 86 to 87 °C. Take `Cc1ccc(S(=O)(=O)n2cc(C(O)CN3CCN(c4ncccn4)CC3)c3ccccc32)cc1` (stereo not drawn) [Compound 4c, 2-(4-(Pyrimidin-2-yl)piperazin-1-yl)-1-(1-tosyl-1H-indol-3-yl)ethanol]: the melting point was 81 to 82 °C. For `O=S(=O)(c1ccc(Cl)cc1)n1cc(C(O)CN2CCN(c3ncccn3)CC2)c2ccccc21` (stereo not drawn) [Compound 4d, 1-(1-(4-Chlorophenylsulfonyl)-1H-indol-3-yl)-2-(4-(pyrimidin-2-yl)piperazin-1-yl)ethanol], the melting point is 76 to 77 °C and 81 to 82 °C. On to `O=S(=O)(c1ccc(F)cc1)n1cc(C(O)CN2CCN(c3ncccn3)CC2)c2ccccc21` (stereo not drawn) [Compound 4e, 1-(1-(4-Fluorophenylsulfonyl)-1H-indol-3-yl)-2-(4-(pyrimidin-2-yl)piperazin-1-yl)ethanol], for which the melting point is 72 to 73 °C. In turn, `O=S(=O)(c1ccc(I)cc1)n1cc(C(O)CN2CCN(c3ccccn3)CC2)c2ccccc21` (stereo not drawn) [Compound 4f, 1-(1-(4-Iodophenylsulfonyl)-1H-indol-3-yl)-2-(4-(pyridin-2-yl)piperazin-1-yl)ethanol] showed a melting point of 157 to 158 °C. The IC50 in series [1] worked out at 24.6 µM. Molecule `COc1ccccc1N1CCN(CC(O)c2cn(S(=O)(=O)c3ccc(I)cc3)c3ccccc23)CC1` (stereo not drawn) [Compound 4g, 1-(1-(4-Iodophenylsulfonyl)-1H-indol-3-yl)-2-(4-(2-methoxyphenyl)piperazin-1-yl)ethanol] gave a melting point of 109 to 110 °C. In addition, in series [1], the “inhibition of 2-Me-5HT-induced Ca2+ mobilization” value is recorded as “strong inhibition” and the half-inhibitory concentration (IC50) was determined as 0.204 µM. Moreover, the pKa in the series “1H-NMR pKa determination” came out at 6.69.

`O=S(=O)(c1ccc(I)cc1)n1cc(C(O)CN2CCN(c3ncccn3)CC2)c2ccccc21` (stereo not drawn) [Compound 4h, 1-(1-(4-Iodophenylsulfonyl)-1H-indol-3-yl)-2-(4-(pyrimidin-2-yl)piperazin-1-yl)ethanol] yielded a melting point of 171 to 172 °C. In addition, in series [1], the IC50 was 0.075 µM. The like results for `O=S(=O)(c1cccc2ccccc12)n1cc(C(O)CN2CCN(c3ccccn3)CC2)c2ccccc21` (stereo not drawn) [Compound 4i, 1-(1-(Naphthalen-1-ylsulfonyl)-1H-indol-3-yl)-2-(4-(pyridin-2-yl)piperazin-1-yl)ethanol] were, in that order, 80 to 81 °C and 0.399 µM. For the molecule `COc1ccccc1N1CCN(CC(O)c2cn(S(=O)(=O)c3cccc4ccccc34)c3ccccc23)CC1` (stereo not drawn) [Compound 4j, 2-(4-(2-Methoxyphenyl)piperazin-1-yl)-1-(1-(naphthalen-1-ylsulfonyl)-1H-indol-3-yl)ethanol], in series [1], the “inhibition of 2-Me-5HT-induced Ca2+ mobilization” value is on record as “strong inhibition” and the IC50 was 0.032 µM. `O=S(=O)(c1cccc2ccccc12)n1cc(C(O)CN2CCN(c3ncccn3)CC2)c2ccccc21` (stereo not drawn) [Compound 4k, 1-(1-(Naphthalen-1-ylsulfonyl)-1H-indol-3-yl)-2-(4-(pyrimidin-2-yl)piperazin-1-yl)ethanol] displayed a melting point of 82 to 83 °C. Also, the IC50 in series [1] was 0.688 µM. `COc1ccc(S(=O)(=O)n2cc(C(O)CN3CCOCC3)c3ccccc32)cc1` (stereo not drawn) [Compound 4l, 1-(1-(4-Methoxyphenylsulfonyl)-1H-indol-3-yl)-2-morpholinoethanol]: the melting point was in the range of 149 to 152 °C. Take `O=S(=O)(c1ccc(F)cc1)n1cc(C2=CCCNC2)c2ccccc21` [III]: the pKi at 5-HT6R (Figure 1, known ligands) is recorded as 8.70.

As for `CN1CCC(c2cn(S(=O)(=O)c3ccc(F)cc3)c3ccccc23)C1` (stereo not drawn) [II], at 5-HT6R (Figure 1, known ligands), the pKi was 8.70. As for `CC(C)c1ccc(S(=O)(=O)n2cc(N3CCN(C)CC3)c3ccccc32)cc1` [IV], the pKi on 5-HT6R (Figure 1, known ligands) is reported as 8.47. As to `COc1ccc2c(c1)c(CCN(C)C)cn2S(=O)(=O)c1ccccc1` [I], the pKi on 5-HT6R (Figure 1, known ligands) is reported as 8.64.

Turning to `CCN(CC)C(=O)[C@@H]1C=C2c3cccc4[nH]cc(c34)C[C@H]2N(C)C1` [LSD], the pKi at 5-HT6R (Figure 1, known ligands) is reported as 8.94. Take `CN1CC(Cl)=C(c2cn(S(=O)(=O)c3ccccc3)c3ccccc23)C1` [VI]: the pKi at 5-HT6R (Figure 1, known ligands) is given as 8.57. As for `CN1CCC[C@@H]1Cc1cn(S(=O)(=O)c2ccccc2)c2ccccc12` [V], at 5-HT6R (Figure 1, known ligands), the pKi is recorded as 9.52.
